Reference: patent US11149028B2, “Methods for treating melanoma using small molecules” (NOVA SOUTHEASTERN UNIVERSITY, priority 2016, dated 2021)
Entries after “also recorded” stand apart in the source; their conditions may differ. Read-outs that look alike come from different tables or passages of the source.

Assays:
M14 cells = assay: CellTiter-Glo viability assay, M14 melanoma cells (library screening, individual compounds, time course); type: cell-based, human; settings: for IC50: Homo sapiens, M14
Method: (§1) Mixture libraries were solubilized in 3% DMSO/H2O and added to polypropylene 384 well plates (Greiner cat #781280). 1,250 CHO-K1, A549, or M14 cells were plated in 384-well plates in 5 μL of serum-free media (F12 for CHO-K1 and A549, DMEM for M14). Test compounds and gefitinib (pharmacological assay control) were prepared as 10-point, 1:3 serial dilutions starting at 300 then added to the cells (5 μL per well) using the Biomek NX^P. Plates were incubated for 72 h at 37° C., 5% CO2 and 95% RH. After incubation, 5 μL of CellTiter-Glo® (Promega cat #: G7570) were added to each well, and incubated for 15 min at room temperature. Luminescence was recorded using a Biotek Synergy H4 multimode microplate reader. Viability was expressed as a percentage relative to wells containing media only (0%) and wells containing cells treated with 1% DMSO only (100%). Three parameters were calculated on a per-plate basis: (a) the signal-to-background ratio (SB); (b) the coefficient for variation [CV; CV=(standard deviation/mean)×100)] for all compound test wells; and (c) the Z′-factor (18). The IC50 value of the pharmacological control (gefitinib, LC Laboratories #G-4408) was also calculated to ascertain the assay robustness. Time course viability assay was performed as described for library screening with luminescence measurements performed at 4, 24, 48, and 72 h.

[1] = system: A549 non-small cell lung cancer cell line; assay: CellTiter-Glo viability assay, A549 cells; type: cell-based; settings: individual compounds
Method: as §1

[2] = system: SKMEL-28 melanoma cell line; assay: Hexosaminidase viability assay, SKMEL-28; type: cell-based; settings: Homo sapiens, SK-MEL-28; for IC50: V600EBRAF mutation
Method: (§2) Hexosaminidase assay was used to study the effects of 2155-14 and 2155-18 on cell viability or cell proliferation of both B16/F-10 and SKMEL-28 cells
(§3) (Landegren, U. Measurement of cell numbers by means of the endogenous enzyme hexosaminidase. Applications to detection of lymphokines and cell surface antigens. J Immunol Methods 1984, 67, 379-388). In brief, cells were plated in 96 well plates, grown overnight and treated the next day with increasing concentrations of compounds (0-50 μM) for 48 h. After 48 h of treatment, media was discarded and cells were washed with PBS to remove residual media from wells. Hexosaminidase substrate (75 μL) (Sigma Aldrich; cat #N9376) was added to each well, incubated at 37° C. for 30 min followed by addition of 112.5 μL of developer into each well. Final absorbance was measured at λ=405 nm. Cell growth was calculated as percent viability=[([…])×100], where A and B were the absorbance of treated and control cells, respectively.

[3] = system: B16/F10 murine metastatic melanoma; assay: Hexosaminidase viability assay, B16/F10; type: cell-based; settings: Mus musculus; for IC50: p53 mutation
Method: as §2, §3

HEPG2 cell line = assay: Viability of HEPG2 liver cancer cells; type: cell-based
MDA-MB-231 cell line = assay: Viability of MDA-MB-231 breast cancer cells; type: cell-based
HDAC2 = HDAC2 (Homo sapiens, UniProt Q92769); assay: HDAC inhibition testing; type: biochemical; settings: up to 100 μM
Chain of HDAC2 (Q92769 whole entry): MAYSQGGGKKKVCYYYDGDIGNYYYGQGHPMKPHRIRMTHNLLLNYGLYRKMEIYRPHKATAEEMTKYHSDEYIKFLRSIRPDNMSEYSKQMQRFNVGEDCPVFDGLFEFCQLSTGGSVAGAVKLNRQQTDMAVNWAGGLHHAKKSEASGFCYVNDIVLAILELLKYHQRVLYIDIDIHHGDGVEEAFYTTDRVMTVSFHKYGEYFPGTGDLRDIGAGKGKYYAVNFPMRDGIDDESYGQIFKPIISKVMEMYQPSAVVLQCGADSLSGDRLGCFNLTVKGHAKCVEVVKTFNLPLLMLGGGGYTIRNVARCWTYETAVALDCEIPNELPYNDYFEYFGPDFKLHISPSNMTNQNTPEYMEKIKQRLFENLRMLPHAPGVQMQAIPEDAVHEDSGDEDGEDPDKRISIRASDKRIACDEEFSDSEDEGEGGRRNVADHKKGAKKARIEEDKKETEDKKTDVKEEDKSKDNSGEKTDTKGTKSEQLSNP

[4] = system: mouse embryonic fibroblasts (MEF); assay: Viability of mouse embryonic fibroblasts; type: cell-based
Method: Cells were plated in 384-well plates in 8 μL of media. Test compounds and dabrafenib (pharmacological assay control) were prepared as 10-point, 1:3 serial dilutions starting at 300 μM, then added to the cells (4 μL per well) using the Biomek Plates were incubated for 72 h at 37° C., 5% CO2 and 95% relative humidity. After incubation, 4 μL of CellTiter-Glo® (Promega cat #: G7570) were added to each well, and incubated for 15 min at room temperature. Luminescence was recorded using a Biotek Synergy H4 multimode microplate reader. Viability was expressed as a percentage relative to wells containing media only (0%) and wells containing cells treated with DMSO only (100%). Three parameters were calculated on a per-plate basis: (a) the signal-to-background ratio (SB); (b) the coefficient for variation [CV; CV=(standard deviation/mean)×100)] for all compound test wells; and (c) the Z′-factor (18). The IC50 value of the pharmacological control (dabrafenib, LC Laboratories #G-4408) was also calculated to ascertain the assay robustness. In case of viability rescue assays, cells were pre-treated with caspase, calpain, and autophagy inhibitors for 1-3 h before addition of test compounds. Time course viability assay was done with luminescence measurements performed at 4, 24, 48, and 72 h.

[5] = system: caspase 8 in WM266-4 cells; assay: Caspase 8 activity assay; type: cell-based, human; settings: 0 and 4 h
Method: (§4) WM266-4 and M14 cells were plated in 384-well plates in 5 μL of complete media (EMEM and RPMI-1640, respectively). 5 μL of 200 μM 2155-14 and 2155-18 were added to the cells. Plates were incubated at 37° C., 5% CO2 and 95% relative humidity for various lengths of time. After incubation, 5 μL of caspase 3/7, caspase 8, and caspase 9 Glo® reagent (Promega cat #: G7570) were added to each well, and incubated for 15 min at room temperature. Luminescence was recorded using a Biotek Synergy H4 multimode microplate reader.

[6] = system: caspase 9 in WM266-4 cells; assay: Caspase 9 activity assay; type: cell-based, human; settings: 0 and 4 h
Method: as §4

[7] = system: LC3-II and beclin-1 in WM266-4 cells; assay: Western blotting for LC3 and beclin-1, WM266-4; type: cell-based, human; settings: for LC3 and beclin-1, early time point: 30 min, 5-50 μM
Method: 1×10^6 of WM266-4 or M14 cells were seeded in 3 mL of E-MEM or RPMI-1640 medium supplemented with 10% FBS and 1% penicillin/streptomycin in 6 cm plates. […] After washing with TBST, the membranes were treated with chemilumiscent horseradish peroxidase detection reagent (Thermo Scientific, Cat #32209) and exposed to autoradiography film (Denville Scientific, Inc., Metuchen, N.J., USA, cat #E3018). ImageJ software (NIH, Bethesda, Md.) was used to quantify the intensity of proteins bands. The protein bands were normalized against loading controls (β-actin) and expressed as a fold of an untreated control.

SMILES | inhibition of M14 cell viability at highest concentration (M14 cells; 100 μM) | IC50 (M14 cells; individual compounds, read-out: IC50 for M14 cells) | IC50 ([1]; Homo sapiens, A549) | IC50 [2] | cytotoxicity at 10 µM ([2]; starting at 10 μM, read-out: inhibition of SKMEL-28 viability) | IC50 [3] | cytotoxicity at 10 µM ([3]; starting at 10 μM, read-out: inhibition of B16/F10 viability) | selectivity against HEPG2 cell line (HEPG2 cell line) | selectivity against MDA-MB-231 cell line (MDA-MB-231 cell line) | HDAC2 inhibition (HDAC2) | toxicity to mouse embryonic fibroblasts [4] | caspase 8 signal vs untreated control [5] | caspase 9 signal vs untreated control [6] | LC3 and beclin-1, early time point [7] | LC3-II level, WM266-4 ([7]; 24 h, 5-200 μM) | beclin-1 level, WM266-4 ([7]; 24 h, 5-200 μM) | IC50 (M14 cells; read-out: IC50 for M14) | activity towards M14 cells (M14 cells; individual compounds) | activity towards A549 cells [1]
O=C1NC[C@H](Cc2ccccc2)N(C[C@@H]2CCCN2C[C@@H](CC2CCCCC2)N2C[C@H](Cc3ccc(O)cc3)N(CCc3ccccc3)C(=O)C2=O)C1=O [Compound 2155-14, (S)-1((R)-1((S)-2-(((S)-6-benzyl-2,3-dioxopiperazin-1-yl)methyl)pyrrolidin-1-yl)-3-cyclohexylpropan-2-yl)-5-(4-hydroxybenzyl)-4-phenethylpiperazine-2,3-dione] | not able to fully inhibit | 3.6 ± 0.3 µM | > 100 µM | 0.563 ± 0.04 µM | ~100% | 2.7 ± 0.2 µM | ~100% | selective | selective | lack of HDAC inhibition | not toxic | significantly different from untreated control cells | significantly different from untreated control cells | autophagy potentiation as compared to the untreated control was not observed; also recorded: No statistical significance between untreated control and test conditions | Dose dependent increase | Dose dependent increase | – | – | –
O=C1NC[C@H](Cc2ccccc2)N(C[C@@H]2CCCN2C[C@H](Cc2ccccc2)N2C[C@H](Cc3ccc(O)cc3)N(CCC34CC5CC(CC(C5)C3)C4)C(=O)C2=O)C1=O [Compound 2155-18, (S)-4-(2-(adamantan-1yl)ethyl)-1-((S)-1-((S)-2-(((S)-6-benzyl-2,3-dioxopiperazin-1-yl)methyl)pyrrolidin-1-yl)-3-phenylpropan-2-yl)-5-(4-hydroxybenzyl)piperazine-2,3-dione] | – | – | – | 0.89 ± 0.07 µM | – | 1.15 µM | – | selective | selective | lack of HDAC inhibition | not toxic | significantly different from untreated control cells | significantly different from untreated control cells | No statistical significance between untreated control and test conditions | dose dependent inhibitory effect on basal autophagy | – | 0.745 ± 0.06 µM | improved activity | improved activity
